From PubChem BioAssay AID1259407 (Chemical Carcinogenesis Research Information System (CCRIS), 2018)
Activity calls are given as the source filed them. How the calls were made is not given here.

Test system: CCRIS mutagenicity, Ames/micronucleus/aberration tests
Test: CCRIS mutagenicity studies

## CN(C)N=O
Test System: AMES SALMONELLA TYPHIMURIUM, Strain/Indicator: TA1535ER, Metabolic Activation: NONE, Method: STANDARD PLATE
  mutagenic call: inactive; negative
Test System: AMES SALMONELLA TYPHIMURIUM, Strain/Indicator: TA1975, Metabolic Activation: RAT, LIVER, S-9, AROCLOR 1254, Method: PREINCUBATION
  mutagenic call: active; positive
Test System: AMES SALMONELLA TYPHIMURIUM, Strain/Indicator: TA2410, Metabolic Activation: NONE, Method: HOST-MEDIATED
  mutagenic call: active; positive
Test System: AMES SALMONELLA TYPHIMURIUM, Strain/Indicator: TA2638, Metabolic Activation: NONE, Method: PREINCUBATION
  mutagenic call: active; positive
Test System: AMES SALMONELLA TYPHIMURIUM, Strain/Indicator: TA2659, Metabolic Activation: NONE, Method: PREINCUBATION
  mutagenic call: inactive; negative
Test System: AMES SALMONELLA TYPHIMURIUM, Strain/Indicator: TA2678, Metabolic Activation: NONE, Method: HOST-MEDIATED
  mutagenic call: active; positive
Test System: AMES SALMONELLA TYPHIMURIUM, Strain/Indicator: YG7100, Metabolic Activation: S-9, Method: PREINCUBATION
  mutagenic call: active; positive
Test System: AMES SALMONELLA TYPHIMURIUM, Strain/Indicator: YG7104, Metabolic Activation: RAT LIVER S-9, ETHANOL (4%), Method: PREINCUBATION
  mutagenic call: active; positive
Test System: AMES SALMONELLA TYPHIMURIUM, Strain/Indicator: YG7104, Metabolic Activation: S-9, Method: PREINCUBATION
  mutagenic call: active; positive
Test System: AMES SALMONELLA TYPHIMURIUM, Strain/Indicator: YG7104ER, Metabolic Activation: NONE, Method: STANDARD PLATE
  mutagenic call: active; positive
Test System: AMES SALMONELLA TYPHIMURIUM, Strain/Indicator: YG7108, Metabolic Activation: RAT LIVER S-9, ETHANOL (4%), Method: PREINCUBATION
  mutagenic call: active; positive
Test System: AMES SALMONELLA TYPHIMURIUM, Strain/Indicator: YG7108, Metabolic Activation: S-9, Method: PREINCUBATION
  mutagenic call: active; positive
Test System: AMES SALMONELLA TYPHIMURIUM, Strain/Indicator: YG7108E, Metabolic Activation: NONE, Method: STANDARD PLATE
  mutagenic call: inactive; negative
Test System: AMES SALMONELLA TYPHIMURIUM, Strain/Indicator: YG7108ER, Metabolic Activation: NONE, Method: STANDARD PLATE
  mutagenic call: active; positive
Test System: AMES SALMONELLA TYPHIMURIUM, Strain/Indicator: YG7108R, Metabolic Activation: NONE, Method: STANDARD PLATE
  mutagenic call: inactive; negative
Test System: AMES SALMONELLA TYPHIMURIUM, Strain/Indicator: YG7112, Metabolic Activation: S-9, Method: PREINCUBATION
  mutagenic call: active; positive
Test System: AMES SALMONELLA TYPHIMURIUM, Strain/Indicator: YG7113, Metabolic Activation: S-9, Method: PREINCUBATION
  mutagenic call: active; positive
Test System: AMES SALMONELLA TYPHIMURIUM, Strain/Indicator: YG7119, Metabolic Activation: S-9, Method: PREINCUBATION
  mutagenic call: inactive; negative
Test System: CHINESE HAMSTER V-79, Strain/Indicator: V-79 (HPRT)/6-THIOGUANINE, Metabolic Activation: RAT, HEPATOCYTES
  mutagenic call: active; positive
Test System: CHINESE HAMSTER V-79, Strain/Indicator: V-79 (HPRT)/6-THIOGUANINE, Metabolic Activation: RAT, HEPATOMA, H4IIE CELLS
  mutagenic call: active; positive
Test System: CHINESE HAMSTER V-79, Strain/Indicator: V-79 (HPRT)/6-THIOGUANINE, Metabolic Activation: RAT, LIVER, S-9, AROCLOR 1254
  mutagenic call: active; positive
Test System: CHINESE HAMSTER V-79, Strain/Indicator: V-79/6-THIOGUANINE, Metabolic Activation: NONE, Method: STANDARD PLATE
  mutagenic call: inactive; negative
Test System: CHINESE HAMSTER V-79, Strain/Indicator: V-79/6-THIOGUANINE, Metabolic Activation: RAT, HEPATOCYTES, BUTYLATED HYDROXYANISOLE, Method: STANDARD PLATE
  mutagenic call: active; positive
Test System: CHINESE HAMSTER V-79, Strain/Indicator: V-79/6-THIOGUANINE, Metabolic Activation: RAT, HEPATOCYTES, Method: STANDARD PLATE
  mutagenic call: active; positive
Test System: CHINESE HAMSTER V-79, Strain/Indicator: V-79/6-THIOGUANINE, Metabolic Activation: RAT, LIVER, S-15, PHENOBARBITAL, Method: STANDARD PLATE
  mutagenic call: active; positive
Test System: CHINESE HAMSTER V-79, Strain/Indicator: V-79/8-AZAGUANINE, Metabolic Activation: RAT, LIVER, S-15, PHENOBARBITAL, Method: STANDARD PLATE
  mutagenic call: active; positive
Test System: CHINESE HAMSTER V-79, Strain/Indicator: V-79/OUABAIN, Metabolic Activation: CELL-MEDIATED, Method: STANDARD PLATE
  mutagenic call: active; positive
Test System: CHINESE HAMSTER V-79, Strain/Indicator: V-79/OUABAIN, Metabolic Activation: FREE MICROSOMES M, LIVER, Method: STANDARD PLATE
  mutagenic call: active; positive
Test System: CHINESE HAMSTER V-79, Strain/Indicator: V-79/OUABAIN, Metabolic Activation: HAMSTER, HEPATOCYTES, Method: CELL-MEDIATED
  mutagenic call: active; positive
Test System: CHINESE HAMSTER V-79, Strain/Indicator: V-79/OUABAIN, Metabolic Activation: NONE, Method: STANDARD PLATE
  mutagenic call: inactive; negative
Test System: CHINESE HAMSTER V-79, Strain/Indicator: V-79/OUABAIN, Metabolic Activation: RAT, HEPATOCYTES, BUTYLATED HYDROXYANISOLE, Method: STANDARD PLATE
  mutagenic call: active; positive
Test System: CHINESE HAMSTER V-79, Strain/Indicator: V-79/OUABAIN, Metabolic Activation: RAT, HEPATOCYTES, Method: STANDARD PLATE
  mutagenic call: active; positive
Test System: CHO/HGPRT, Strain/Indicator: CHO-K1-BH4, Metabolic Activation: MOUSE, IN VIVO, Method: HOST-MEDIATED
  mutagenic call: active; positive
Test System: E. COLI, Strain/Indicator: WP2 (HCR), Metabolic Activation: RAT, LIVER, MICROSOMES, KANECHLOR 500, Method: PREINCUBATION
  mutagenic call: inactive; negative
Test System: E. COLI, Strain/Indicator: WP2, Metabolic Activation: NONE, Method: STANDARD PLATE
  mutagenic call: active; positive
Test System: E. COLI, Strain/Indicator: WP2, Metabolic Activation: RAT, LIVER, S-9, AROCLOR 1254, Method: STANDARD PLATE
  mutagenic call: active; positive
Test System: E. COLI, Strain/Indicator: WP2 UVRA, Metabolic Activation: HAMSTER, LIVER, S-9, AROCLOR 1254, Method: PREINCUBATION
  mutagenic call: inactive; negative
Test System: E. COLI, Strain/Indicator: WP2 UVRA, Metabolic Activation: HAMSTER, LIVER, S-9, Method: PREINCUBATION
  mutagenic call: inactive; negative
Test System: E. COLI, Strain/Indicator: WP2 UVRA, Metabolic Activation: MOUSE, LIVER, S-9, AROCLOR 1254, Method: PREINCUBATION
  mutagenic call: inactive; negative
Test System: E. COLI, Strain/Indicator: WP2 UVRA, Metabolic Activation: MOUSE, LIVER, S-9, Method: PREINCUBATION
  mutagenic call: inactive; negative
Test System: E. COLI, Strain/Indicator: WP2 UVRA, Metabolic Activation: NONE, Method: PREINCUBATION
  mutagenic call: inactive; negative
Test System: E. COLI, Strain/Indicator: WP2 UVRA, Metabolic Activation: NONE, Method: STANDARD PLATE
  mutagenic call: active; positive
Test System: E. COLI, Strain/Indicator: WP2 UVRA, Metabolic Activation: RAT, LIVER, S-9, AROCLOR 1254, Method: PREINCUBATION
  mutagenic call: inactive; negative
Test System: E. COLI, Strain/Indicator: WP2 UVRA, Metabolic Activation: RAT, LIVER, S-9, AROCLOR 1254, Method: STANDARD PLATE
  mutagenic call: active; positive
Test System: E. COLI, Strain/Indicator: WP2 UVRA, Metabolic Activation: RAT, LIVER, S-9, Method: PREINCUBATION
  mutagenic call: inactive; negative
Test System: MOUSE LYMPHOMA, Strain/Indicator: L5178Y (TK+/TK-), Metabolic Activation: RAT, LIVER, S-9, AROCLOR 1254, Method: SUSPENSION/PLATE
  mutagenic call: active; positive
Test System: MOUSE LYMPHOMA, Strain/Indicator: L5178Y (TK+/TK-), Metabolic Activation: RAT, LIVER, S-9, Method: SUSPENSION/PLATE
  mutagenic call: active; positive
Test System: UDS HUMAN CELLS, Strain/Indicator: THY INCORP (NON-S-PHASE), Metabolic Activation: NONE, Method: AUTORADIOGRAPHY
  mutagenic call: active; positive
Test System: UDS HUMAN CELLS, Strain/Indicator: THY INCORP (NON-S-PHASE), Metabolic Activation: RAT, LIVER, S-9, Method: AUTORADIOGRAPHY
  mutagenic call: active; positive
Test System: UDS HUMAN FIBROBLASTS, Strain/Indicator: THY INCORP (NON-S-PHASE), Metabolic Activation: NONE, Method: AUTORADIOGRAPHY
  mutagenic call: active; positive
Test System: UDS HUMAN FIBROBLASTS, Strain/Indicator: THY INCORP (NON-S-PHASE), Metabolic Activation: RAT, LIVER, S-9, Method: LIQUID SCINTILLATION COUNTING
  mutagenic call: active; positive
Test System: UDS MONKEY HEPATOCYTES, Strain/Indicator: THY INCORP, Metabolic Activation: AROCLOR 1254, Method: AUTORADIOGRAPHY
  mutagenic call: active; positive
Test System: UDS MONKEY HEPATOCYTES, Strain/Indicator: THY INCORP, Metabolic Activation: NONE, Method: AUTORADIOGRAPHY
  mutagenic call: active; positive
Test System: UDS MOUSE HEPATOCYTES, Metabolic Activation: NONE, Method: IN VIVO-IN VITRO
  mutagenic call: active; positive
Test System: UDS RAT HEPATOCYTES, Strain/Indicator: BROMODEOXYURIDINE INCORP, Metabolic Activation: NONE, Method: FLOW CYTOMETRIC ANALYSIS
  mutagenic call: active; positive
Test System: UDS RAT HEPATOCYTES, Strain/Indicator: THY INCORP, Metabolic Activation: NONE, Method: AUTORADIOGRAPHY
  mutagenic call: active; positive
Test System: UDS RAT HEPATOCYTES, Strain/Indicator: THY INCORP, Metabolic Activation: NONE, Method: LIQUID SCINTILLATION COUNTING
  mutagenic call: active; positive
Test System: UDS RODENT HEPATOCYTES, Strain/Indicator: THY INCORP (NON-S-PHASE), Method: AUTORADIOGRAPHY
  mutagenic call: active; positive
Test System: UDS RODENT HEPATOCYTES, Strain/Indicator: THY INCORP (NON-S-PHASE), Method: LIQUID SCINTILLATION COUNTING
  mutagenic call: active; positive
Test System: UDS, Strain/Indicator: HEPG2/THYMIDINE INCORPORATION, Metabolic Activation: NONE, Method: AUTORADIOGRAPHY
  mutagenic call: active; positive
